The source made the active and inactive calls. The calls are words filed in the database; no cut-off is given here.
Tests used:
RAW264.7 [1] = experiment: Cytotoxicity against mouse RAW264.7 cells […] measured after 24 hrs by MTT assay; format: cell-based; conditions: RAW264.7, 24 h
RAW264.7 [2] = experiment: Antiinflammatory activity in mouse RAW264.7 cells assessed as inhibition of LPS-induced NO production at 100 uM measured after 24 hrs by Griess method; format: functional
Danio rerio = species: Danio rerio; experiment: Antiinflammatory activity in transgenic fluorescent Zebrafish assessed as reduction in CuSO4 induced number of macrophage migration at 10 to 50 uM measured after 1 hr by fluorescence microscopic analysis; format: functional, organism-based; conditions: dose 10-50 µM

Question: `C[C@@H]1CC[C@@]2(C)[C@H](C)[C@]3(C[C@@]12C)C(=O)O[C@H]1O[C@H]13` was tested. Which IC50 (RAW264.7 [1]) did it give?
Answer: > 100 µM

Question: And the Activity (RAW264.7 [2])?
Answer: inactive

Question: What does the source list for `CCO[C@@]12C[C@@]3(C)[C@H](C)CC[C@@]3(C)[C@H](C)C1=CC(=O)O2`?
Answer: IC50 (RAW264.7 [1]): > 100 µM; Activity (RAW264.7 [2]): 83.54%; Activity (Danio rerio): Active

Question: How did the IC50 (RAW264.7 [1]) turn out when `C[C@@H]1CC[C@@]2(C)[C@H](C)C3=CC(=O)N[C@@H]3C[C@@]12C` was run?
Answer: > 100 µM

Question: And the Activity (RAW264.7 [2])?
Answer: inactive

Question: For `C=C1[C@@]2(CC=O)O[C@H](OC2=O)[C@@]2(C)[C@H](C)CC[C@@]12C`, which IC50 (RAW264.7 [1]) is on record?
Answer: > 100 µM

Question: What about the Activity (RAW264.7 [2]) of the same compound?
Answer: 83.15%

Question: And the Activity (Danio rerio)?
Answer: inactive

Question: For `C[C@@H]1CC[C@@]2(C)[C@H](C)C3=CC(=O)O[C@]3(O)C[C@@]12C`, which IC50 (RAW264.7 [1]) is on record?
Answer: > 100 µM

Question: And the Activity (RAW264.7 [2])?
Answer: 96.28%

Question: What about the Activity (Danio rerio) of the same compound?
Answer: inactive

Question: Which IC50 (RAW264.7 [1]) does the source give for `C=C1[C@]2(C)CC[C@@H](C)[C@]2(C)C[C@@]2(O)O[C@@H](OCC)[C@H](O)[C@@]12OCC` here?
Answer: > 100 µM

Question: What about the Activity (RAW264.7 [2]) of the same compound?
Answer: inactive

Question: For `CC1=C(CC(=O)O)C(=O)C[C@@]2(C)[C@H](C)CC[C@@]12C`, which IC50 (RAW264.7 [1]) is on record?
Answer: > 100 µM

Question: What about the Activity (RAW264.7 [2]) of the same compound?
Answer: inactive

Question: `CO[C@@]12C[C@@]3(C)[C@H](C)CC[C@@]3(C)[C@H](C)C1=CC(=O)O2` was tested. Which IC50 (RAW264.7 [1]) did it give?
Answer: > 100 µM

Question: What about the Activity (RAW264.7 [2]) of the same compound?
Answer: inactive

Question: What does the source list for `C[C@@H]1CC[C@@]2(C)[C@H](C)C3=CC(=O)NC3=C[C@@]12C`?
Answer: IC50 (RAW264.7 [1]): > 100 µM; Activity (RAW264.7 [2]): inactive

Question: What does the source list for `CCOC(=O)/C=C1\C(=O)C[C@@]2(C)[C@H](C)CC[C@@]2(C)[C@@H]1C`?
Answer: IC50 (RAW264.7 [1]): > 100 µM; Activity (RAW264.7 [2]): inactive

Question: With `CCOC(=O)C1=C(C)[C@]2(C)CC[C@@H](C)[C@]2(C)CC1=O` as the compound, how does the IC50 (RAW264.7 [1]) read?
Answer: > 100 µM

Question: And the Activity (RAW264.7 [2])?
Answer: inactive

Reference: ChEMBL document CHEMBL5036360, “Pinguisane Sesquiterpenoids from the Chinese Liverwort Trocholejeunea sandvicensis and Their Anti-Inflammatory Activity” (J Nat Prod, 2022)
